Experimental data: the METLIN SMRT retention time set (Domingo-Almenara et al. 2019)

Assay: gradient 5% acetonitrile 3 min, to 50% in 2 min, to 85% in 15 min, held 3 min, 100 µL/min
Settings: column: Zorbax Extend-C18 2.1 x 50 mm; eluents: water / acetonitrile, 0.1% formic acid
Method in brief: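 A Zorbax Extend-C18 column (2.1 × 50 mm, 1.8 μm) run at 100 μL/min with water and acetonitrile, both containing 0.1% formic acid, separated mixtures of ~100 pure standards. The HPLC was coupled to a quadrupole time-of-flight mass spectrometer operated in positive and negative ionization mode, with dead and dwell volumes of 40 μL and 900 μL. Each retention time was taken from a computationally picked adduct peak that was then manually inspected.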
With `Cc1cc(-c2nnc(C3CCC3)o2)c(C)n1CC(=O)NCc1ccccc1C(F)(F)F` the RP-LC retention time was 960 s.
In the case of `O=C(Cn1c(-c2nnco2)cc2ccccc21)NCC1CCCO1` (stereo unspecified), the RP-LC retention time is reported as 668 s.
`Cn1cc(-c2nc(C(=O)NCc3cccs3)cs2)c2cccnc21` gave an RP-LC retention time of 851 s.
`COc1ccc(C2C(C(=O)Nc3cc(OC)c(OC)c(OC)c3)c3ccccc3C(=O)N2C)cc1` (stereo unspecified) showed an RP-LC retention time of 815 s.
Compound `O=C(Cn1nc2n(c1=O)CCCC2)NCc1ccccc1Br` has an RP-LC retention time of 663 s.
In the case of `CSc1cccc(NC(=O)Cn2c(C)nc3c(sc4nc(-c5ccccc5)ccc43)c2=O)c1`, the RP-LC retention time is reported as 1100 s.
`O=C(NCCCN1CCC(Cc2ccccc2)CC1)C1CCCN(S(=O)(=O)N2CCCCC2)C1` (stereo unspecified) gave an RP-LC retention time of 745 s.
Compound `O=C(NCc1ccc(Cl)cc1)c1ccc2ccnc(N3CCN(C(=O)c4ccco4)CC3)c2c1` has an RP-LC retention time of 739 s.
For `COc1ccc(C(=O)N2CCCC(COc3ccc(C(=O)NC(C)C)cc3)C2)c(C)c1` (stereo unspecified), the RP-LC retention time was 842 s.
In the case of `CCOc1ccccc1N1CCN(Cc2nc(-c3ccc(N4CCCC4)nc3)no2)CC1`, the RP-LC retention time is reported as 651 s.
`CC1(C(=O)N2CCCc3ccccc32)Cc2ccccc2C(=O)O1` (stereo unspecified) showed an RP-LC retention time of 841 s.
`O=C(C1CC1)N1CCc2sc(S(=O)(=O)Nc3ccc(F)cc3)cc2C1` gave an RP-LC retention time of 799 s.
With `O=C(NCC(O)(c1ccccc1)C(F)(F)F)c1cccs1` (stereo unspecified) the RP-LC retention time was 815 s.
With `COc1ccc(NC(=O)C2CCCN(c3nc4ccccc4nc3OC)C2)cc1OC` (stereo unspecified) the RP-LC retention time was 982 s.
`CCCn1ccc2oc(C)c(C(=O)NC(C)c3ccc(C)cc3C)c2c1=O` (stereo unspecified) gave an RP-LC retention time of 1190 s.
With `COc1ccc(N2CC(c3noc(-c4ccc(C)cc4C)n3)CC2=O)cc1` (stereo unspecified) the RP-LC retention time was 1000 s.
`Cc1ccccc1CNC(=O)c1ccc2c(c1)Sc1ncccc1C(=O)N2C` showed an RP-LC retention time of 789 s.
`Cc1ccc(-c2nc(C3CC(=O)N(c4ccc(F)c(Cl)c4)C3)no2)c(C)c1` (stereo unspecified) showed an RP-LC retention time of 1250 s.
In the case of `c1ccc(-c2nc(-c3ccncc3)no2)c(OC2CCN(C3CCCC3)C2)c1` (stereo unspecified), the RP-LC retention time is reported as 667 s.
`CCc1cc(=O)n(CC(=O)Nc2cccc(F)c2)c(N2CCOCC2)n1` gave an RP-LC retention time of 763 s.
For `Cc1ccn2cc(-c3ccc(NS(=O)(=O)c4cc(C)c(C)cc4C)cc3)nc2n1`, the RP-LC retention time was 712 s.
Compound `Cc1ccc(CNC(=O)c2cc3sc(C)c(CN4CCOCC4)c3[nH]2)o1` has an RP-LC retention time of 656 s.
`Cc1ccc(NC(=O)N2CCC(OC3CCN(S(C)(=O)=O)CC3)CC2)cc1F` showed an RP-LC retention time of 792 s.
With `CCc1cccc(NC(=O)Cn2c(N3CCOCC3)nc(CC)cc2=O)c1` the RP-LC retention time was 791 s.
Work on `COc1cccc(-c2noc(Cn3ccn(-c4ccccc4)c(=O)c3=O)n2)c1` yielded an RP-LC retention time of 812 s.
For `CCn1cc(C(=O)Nc2ccc(F)cc2)c(S(=O)(=O)N2CCSCC2)n1`, the RP-LC retention time was 976 s.
In the case of `CC(C)CNC(=O)C(=O)NCc1ccccn1`, the RP-LC retention time is reported as 552 s.
In the case of `CCOC(=O)c1c(S(=O)(=O)N2CCC(C(=O)Nc3ccc(F)c(Cl)c3)CC2)c(C)n(C)c1C`, the RP-LC retention time is reported as 935 s.
`CCCC(=O)N1CCc2c([nH]c3ccc(OC)cc23)C1c1ccc(F)cc1` (stereo unspecified) gave an RP-LC retention time of 1040 s.
`Cc1ccc(CNC(=O)c2nc3cccnc3n(C)c2=O)cc1` showed an RP-LC retention time of 787 s.
Compound `O=C(Nc1nnc(SCc2c(F)cccc2Cl)s1)c1cc(C2CC2)on1` has an RP-LC retention time of 1010 s.
Compound `O=C(C1=CN(c2ccc3c(c2)OCO3)c2ccccc2S1(=O)=O)N1CCCCC1` has an RP-LC retention time of 780 s.
Work on `CCc1nc(-n2cccc2)sc1C(=O)Nc1ccccc1F` yielded an RP-LC retention time of 1100 s.
Work on `Cc1ccc(-c2ccc3nn(Cc4nc(-c5ccc(F)c(Br)c5)no4)c(=O)n3n2)cc1` yielded an RP-LC retention time of 1090 s.
With `O=c1oc2c(O)c(O)ccc2c2c1CCC2` the RP-LC retention time was 655 s.
`CCOCC(=O)N1CCCN(C2=NS(=O)(=O)C(c3ccccc3)=C2C)CC1` showed an RP-LC retention time of 688 s.
`O=C(Cn1nc(N2CCCC2)c2ccccc2c1=O)Nc1ccc(F)c(Cl)c1` gave an RP-LC retention time of 1000 s.
For `Cc1ccc(-c2ccc(N3CCCC(C(=O)N4CCC5(CC4)OCCO5)C3)nn2)cc1C` (stereo unspecified), the RP-LC retention time was 684 s.
In the case of `CCn1cc(CCNC(=O)c2cncc(Br)c2)c2cccnc21`, the RP-LC retention time is reported as 699 s.
For `O=C(CCc1csc(NC(=O)c2cccs2)n1)Nc1ccc2c(c1)OCCO2`, the RP-LC retention time was 733 s.
Work on `CCN(c1ccccc1)S(=O)(=O)c1cc(-c2[nH]ncc2C(=O)N2CCOCC2)oc1C` yielded an RP-LC retention time of 718 s.
`Cc1ccccc1NC(=O)C1CCCN(c2nc3ccccc3nc2C(F)(F)F)C1` (stereo unspecified) showed an RP-LC retention time of 1190 s.
Compound `CCOCCCNC(=O)CN1C(=O)C2CCCCN2c2ccc(C(=O)N3CCCC3)cc21` (stereo unspecified) has an RP-LC retention time of 694 s.
In the case of `CN(C)C(=O)c1cc2c(s1)CCC(C(=O)N1CCN(c3ccccc3)CC1)C2` (stereo unspecified), the RP-LC retention time is reported as 735 s.
`N#CC1(C(=O)Nc2ccc(F)c(F)c2)CC1` showed an RP-LC retention time of 760 s.
Work on `O=C(CSCc1ccccc1)NCCS(=O)(=O)N1CCN(c2ncccn2)CC1` yielded an RP-LC retention time of 746 s.
`Cc1cccc(N2CCN(C(=O)CC3COc4ccccc4NC3=O)CC2)c1C` (stereo unspecified) showed an RP-LC retention time of 861 s.
In the case of `Cc1ccccc1OCC(=O)NCC1CC(=O)N(c2ccccc2)C1` (stereo unspecified), the RP-LC retention time is reported as 741 s.
With `CCOc1cc(-c2noc(-c3ncn4c3COC(c3ccc(OC)cc3)C4)n2)ccc1OC` (stereo unspecified) the RP-LC retention time was 992 s.
For `O=S(=O)(Nc1ccc(-c2noc(COc3ccc(Cl)cc3)n2)cc1)c1cccs1`, the RP-LC retention time was 1120 s.
Compound `COc1cc(NC(=O)CSC2CCc3ccccc3NC2=O)cc(OC)c1` (stereo unspecified) has an RP-LC retention time of 796 s.
Work on `CCOC(=O)c1ccc(NC(=O)C2(c3cccs3)CCOCC2)cc1` yielded an RP-LC retention time of 956 s.
Compound `CCc1ccc(S(=O)(=O)N2CCn3c(nnc3C3CCN(C(C)C)C3)C2)cc1` (stereo unspecified) has an RP-LC retention time of 571 s.
Compound `COc1cc(CNCCSc2nnnn2C)cc(Br)c1OCc1ccccc1` has an RP-LC retention time of 744 s.
Compound `COC(=O)c1c(-c2cccc(F)c2)noc1NCCN1CCCC1` has an RP-LC retention time of 640 s.
In the case of `O=C(c1cccc(F)c1)N1CCC(n2nc(-c3ccsc3)ccc2=O)CC1`, the RP-LC retention time is reported as 807 s.
Compound `CCOc1ccc(NC(=O)N2CCC(n3c(-c4ccco4)nc4cccnc43)C2)cc1` (stereo unspecified) has an RP-LC retention time of 759 s.
For `COc1ccccc1-c1nc(Cc2noc(Cc3ccc(F)cc3)n2)c(C)o1`, the RP-LC retention time was 1000 s.
Compound `O=C(Nc1ccc2nncn2c1)c1ccc(Cl)cc1` has an RP-LC retention time of 719 s.
`Cc1ccccc1NC(=O)CN1C(=O)C2CCCCN2c2ccc(S(=O)(=O)N(C)C)cc21` (stereo unspecified) showed an RP-LC retention time of 607 s.
`Cc1ccc(NC(=O)C2CCN(S(C)(=O)=O)c3cc(Cl)ccc3O2)cc1` (stereo unspecified) gave an RP-LC retention time of 1010 s.
`O=C(NCc1cc(F)cc(F)c1)C1CCCN(c2ccc(-c3ccccc3)nn2)C1` (stereo unspecified) showed an RP-LC retention time of 735 s.
For `COc1ccc(N2CCN(S(=O)(=O)c3cc(-c4nc(C)cs4)cs3)CC2)cc1`, the RP-LC retention time was 1070 s.
With `CCOC(=O)N1CCC2(CC1)N=C(c1ccc(F)cc1)CC(c1cccc(OC)c1O)N2` (stereo unspecified) the RP-LC retention time was 748 s.
For `Cc1cc(C)cc(N2CCC(NC(=O)Nc3ccc(C)cc3C)C2=O)c1` (stereo unspecified), the RP-LC retention time was 938 s.
`CCc1ccccc1S(=O)(=O)N1CCC(C(=O)NCCc2csc(-c3cccs3)n2)CC1` gave an RP-LC retention time of 981 s.
